From patent US20260373266A1, “PROTEIN DEGRADERS AND USES THEREOF” (KYMERA THERAPEUTICS, INC., priority 2022, published 2026) come the findings set out here.

Bounds are passed on as bounds.

The test addresses T1, DCAF1 WD40 domain (residues 1077-1390) (Homo sapiens, UniProt Q9Y4B6).
T1 construct: DCAF1 WD40 domain (residues 1077-1390)
The test can be described thus: DCAF1 binding assay by SPR (Biacore 8K+), DCAF1-3 KD. The settings on record: 25 °C, read-out: DCAF1-3 SPR (KD). For orientation: SPR reads the build-up and loss of mass on a sensor chip optically.

T1 sequence (Q9Y4B6 1077-1390): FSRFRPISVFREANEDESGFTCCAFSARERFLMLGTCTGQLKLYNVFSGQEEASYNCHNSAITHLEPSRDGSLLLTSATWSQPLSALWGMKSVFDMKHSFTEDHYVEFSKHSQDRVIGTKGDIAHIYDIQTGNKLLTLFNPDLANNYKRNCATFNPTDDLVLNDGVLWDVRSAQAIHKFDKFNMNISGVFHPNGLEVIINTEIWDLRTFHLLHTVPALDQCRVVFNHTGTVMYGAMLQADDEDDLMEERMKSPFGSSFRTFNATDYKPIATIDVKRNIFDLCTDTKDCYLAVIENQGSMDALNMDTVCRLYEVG

The term Kd denotes the concentration at which binding is half-saturated. For `Fc1ccccc1N1CCC[C@@H](Nc2cc(N3CCOCC3)ncn2)C1` [I-3], the Kd is > 200 µM.
The figure for `OC1(C2CCCCC2)CCC[C@@H](Nc2cc(N3CCCCC3)ccn2)C1` (stereo partly drawn) [I-804] is 10 to 100 µM.
The figure for `Cc1sc2c(c1C)C(c1ccc(Cl)cc1)=N[C@@H](CC(=O)NCCOCCOCCOCCOCCOCCOCCn1cc(C(=O)N[C@@H](CC(N)=O)c3cccc(Cl)c3)c(-c3ccccc3F)n1)c1nnc(C)n1-2` [I-889] is > 200 µM; for `NC(=O)C[C@H](NC(=O)c1cn[nH]c1-c1ccccc1F)c1ccccc1F` [I-602] it is < 10 µM.
As to `Oc1ccc(C2CCCCC2)cc1N[C@@H]1CCCN(c2cccc(F)c2)C1` [I-921], the Kd was 10 to 100 µM.
The figure for `Nc1nc(N[C@@H]2CCCN(c3cccc(F)c3)C2)cc(N2CCOCC2)n1` [I-368] is > 200 µM; for `CCCN(c1nccc(N2CCOCC2)n1)[C@@H]1CCCN(c2cccc(F)c2)C1` [I-44] it is > 200 µM; for `C=CC(=O)NC1CCC(c2[nH]ncc2C(=O)N[C@H](CC(N)=O)c2cccc(Cl)c2)CC1` (stereo partly drawn) [I-537] it is 10 to 100 µM.
On to `COc1ccc(N2CCC[C@@H](Nc3cc(N4CCOCC4)ncn3)C2)cc1` [I-10], for which the Kd was > 200 µM.
On to `NC(=O)CC(NC(=O)c1cn[nH]c1-c1c(F)cc(Cl)cc1F)c1ccc(F)c(Cl)c1` (stereo not drawn) [I-1049], for which the Kd is < 10 µM.
Regarding `NC(=O)C[C@H](NC(=O)c1cn[nH]c1-c1ccccc1F)c1ccncc1` [I-341], the Kd is > 200 µM.
Consider `Cc1c(F)ccc(F)c1-c1[nH]ncc1C(=O)N[C@@H](CC(N)=O)c1cccc(Cl)c1` [I-601], for which the Kd is < 10 µM.
The figure for `Cc1c(F)ccc(F)c1-c1c(C(=O)N[C@@H](CC(N)=O)c2cccc(Cl)c2)cn(C)c1C(=O)c1ccc(OCCOCCOCCN)cc1` [I-1034] is < 10 µM.
Take `Cc1c(F)ccc(F)c1-c1c(C(=O)N[C@@H](CC(N)=O)c2cccc(Cl)c2)cn(C)c1C(=O)c1ccccc1` [I-886]: the Kd is < 10 µM.
Consider `c1cnc2ccc(N3CCC[C@@H](Nc4nccc(N5CCOCC5)n4)C3)cc2c1` [I-56], for which the Kd was > 200 µM.
The figure for `CC(F)(c1cc(N2CCOCC2)ccn1)C1CCCN(c2cccc(F)c2)C1` (stereo not drawn) [I-266] is > 200 µM; for `OC[C@@]1(Nc2cc(N3CCOCC3)ccn2)CCCN(c2cccc(F)c2)C1` [I-276] it is > 200 µM.
Regarding `COc1ncccc1-c1[nH]ncc1C(=O)N[C@@H](CC(N)=O)c1cccc(Cl)c1` [I-504], the Kd is > 200 µM.
The figure for `O=C1NCCN1Cc1cccc(N2CCC[C@@H]3[C@H]2CCN3c2cc(N3CCCCC3)ccn2)c1` [I-959] is 10 to 100 µM; for `Cc1sc2c(c1C)C(c1ccc(Cl)cc1)=N[C@@H](CC(=O)NCCOCCOCCOCCOCCCc1ccc(C(=O)c3[nH]cc(C(=O)N[C@@H](CC(=O)N4CCN(C(=O)OCc5ccccc5)CC4)c4cccc(Cl)c4)c3-c3c(F)ccc(F)c3C)cc1)c1cnc(C)n1-2` [I-914] it is < 10 µM.
In the case of `C=CC(=O)N[C@H]1CCN(c2ccnc(N[C@@H]3CCCN(c4cccc(F)c4)C3)c2)C1` [I-478], the Kd was > 200 µM.
With `NC(=O)C[C@@]1(NC(=O)c2c[nH]nc2-c2ccccc2F)CCc2c(Cl)cccc21` [I-205], the Kd is > 200 µM.
The figure for `NC(=O)C[C@H](NC(=O)c1cn(Cc2ccccc2)nc1-c1ccccc1F)c1cccc(Cl)c1` [I-495] is > 200 µM; for `NC(=O)c1cccc(N2CCC[C@@H](Nc3cc(N4CCOCC4)ccn3)C2)c1` [I-775] it is > 200 µM; for `Cc1c(F)ccc(F)c1-c1c(C(=O)N[C@@H](CC(N)=O)c2cccc(Cl)c2)c[nH]c1C(=O)c1cccc(-c2ccccc2)c1` [I-702] it is < 10 µM.
The figure for `CS(=O)(=O)CN(c1cc(N2CCOCC2)ccn1)[C@@H]1CCCN(c2cccc(F)c2)C1` [I-258] is > 200 µM; for `c1cnc2ccnc(N3CCC[C@@H](Nc4cc(N5CCOCC5)ccn4)C3)c2c1` [I-63] it is 100 to 200 µM; for `Fc1cccc(N2CC[C@@H]3CN(c4cc(N5CCCCC5)ccn4)C[C@@H]32)c1` [I-667] it is 10 to 100 µM.
In the case of `CC(NC(=O)c1cn[nH]c1-c1cccc(Cl)c1)c1ccc[nH]1` (stereo not drawn) [I-836], the Kd is > 200 µM.
The figure for `c1cc(N2CCOCC2)cc(N[C@@H]2CCCN(c3ccnc(OC4CC4)c3)C2)n1` [I-687] is 10 to 100 µM.
The figure for `O=c1cc(N2CCOCC2)cc(N[C@@H]2CCCN(c3cccc(F)c3)C2)[nH]1` [I-303] is > 200 µM.
The figure for `O=C(c1cc(N2CCCCC2)ccn1)[C@@H]1CCCN(c2cccc(F)c2)C1` [I-612] is > 200 µM.
For `Cc1cccc(C(=O)c2[nH]cc(C(=O)N[C@@H](CC(N)=O)c3cccc(Cl)c3)c2-c2c(C)cccc2F)c1` [I-627], the Kd was < 10 µM.
For `NS(=O)(=O)c1nc(N2CCC[C@@H](Nc3cc(N4CCOCC4)ccn3)C2)cs1` [I-413], the Kd was > 200 µM.
The figure for `Cn1nnnc1-c1ccc(F)c(-c2n[nH]cc2C(=O)N[C@@H](CC(N)=O)c2cccc(Cl)c2)c1` [I-268] is > 200 µM.
`NC(=O)C[C@H](NC(=O)c1c[nH]nc1-c1ccccc1O)c1cccc(Cl)c1` [I-229]: the Kd was > 200 µM.
In the case of `Fc1cccc(N2CCC[C@@H](Nc3cc(N4CC5(CCC5)C4)ccn3)C2)c1` [I-577], the Kd fell in the range of 10 to 100 µM.
As to `Cc1c(F)ccc(F)c1-c1c(C(=O)N[C@@H](CC(N)=O)c2cccc(Cl)c2)c[nH]c1C(=O)COCCOCCOCCOCCOCCOCCN` [I-802], the Kd was < 10 µM.
The figure for `c1cc2cc(N3CCC[C@@H](Nc4cc(N5CCOCC5)ncn4)C3)ccc2cn1` [I-401] is > 200 µM; for `NC(=O)C[C@H](NC(=O)c1cn[nH]c1-c1ccncc1)c1cccc(Cl)c1` [I-336] it is 10 to 100 µM.
With `c1cc(N2CCCCC2)cc(N[C@@H]2CCC[C@@H](C3CCCCC3)C2)n1` [I-752], the Kd lay in the range of 10 to 100 µM.
For the compound `Cc1cccc(F)c1-c1c(C(=O)N[C@@H](CC(N)=O)c2cccc(Cl)c2)c[nH]c1C(=O)C1CCCCC1` [I-606], the Kd is < 10 µM.
The figure for `NC(=O)CC(Cc1ccccc1)NC(=O)c1cn[nH]c1-c1cc(F)ccc1F` (stereo not drawn) [I-814] is 10 to 100 µM.
The figure for `Cc1c(F)ccc(F)c1-c1c(C(=O)N[C@@H](CC(N)=O)c2cccc(Cl)c2)cn(C)c1C(=O)c1ccc(OCCOCCOCCOCCN)cc1` [I-1024] is < 10 µM; for `Fc1cccc(N2CCC[C@@H](n3ccc4c(N5CCOCC5)ccnc43)C2)c1` [I-49] it is 100 to 200 µM.
As to `C=CC(=O)NCCCN1CCN(c2ccnc3c2CCN3C2CCCN(c3cccc(F)c3)C2)CC1` (stereo not drawn) [I-845], the Kd fell in the range of 10 to 100 µM.
Consider `CCCCCCC[C@H]1CCCN(c2ccnc(N3CC[C@H]4[C@@H]3CCCN4c3cccc(F)c3)c2)C1` [I-729], for which the Kd lay in the range of 10 to 100 µM.
The figure for `O[C@@H]1CCCN(c2ccnc(N3CC[C@@H]4[C@H]3CCCN4c3cccc(F)c3)c2)C1` [I-794] is < 10 µM; for `NC(=O)C[C@H](NC(=O)c1nc(N)[nH]c1-c1ccccc1F)c1cccc(Cl)c1` [I-220] it is > 200 µM.
For the compound `NC(=O)C[C@H](NC(=O)c1cn[nH]c1-c1c(F)cccc1C(F)(F)F)c1cccc(Cl)c1` [I-630], the Kd is < 10 µM.
The figure for `Cc1cccc(F)c1-c1[nH]ncc1C(=O)N[C@H](CC(N)=O)c1cc(F)cc(Cl)c1` [I-749] is < 10 µM.
The figure for `c1ccc2cc(N3CCC[C@@H](Nc4cc(N5CCOCC5)ncn4)C3)ncc2c1` [I-398] is > 200 µM.
As for `Fc1cccc(N2CCC3CCCc4cnc(N5CCOCC5)cc4N[C@H]3C2)c1` (stereo partly drawn) [I-226], the Kd was > 200 µM.
`Cc1sc2c(c1C)C(c1ccc(Cl)cc1)=N[C@@H](CC(=O)N(C)CCOCCOCCOCCOCCOCC(=O)c1[nH]cc(C(=O)N[C@@H](CC(N)=O)c3cccc(Cl)c3)c1-c1ccccc1F)c1nnc(C)n1-2` [I-900]: the Kd was < 10 µM.
The figure for `Cc1c(F)ccc(F)c1-c1c(C(=O)N[C@@H](CC(N)=O)c2cccc(Cl)c2)csc1C#N` [I-972] is < 10 µM.
Regarding `Cc1c(F)ccc(F)c1-c1c(C(=O)N[C@@H](CC(=O)N2CCNCC2)c2cccc(Cl)c2)c[nH]c1C(=O)c1ccccc1` [I-851], the Kd is < 10 µM.
Regarding `NC[C@@H]1CC[C@H](Nc2cc(N3CCCCC3)ccn2)CN1c1cccc(F)c1` [I-1022], the Kd is 10 to 100 µM.
In the case of `C[C@H]1CCCCN1c1ccnc(N[C@@H]2CCCN(c3cccc(F)c3)C2)c1` [I-569], the Kd was < 10 µM.
For `COc1ccc(C(=O)c2[nH]cc(C(=O)N[C@@H](CC(N)=O)c3cccc(Cl)c3)c2-c2c(F)ccc(F)c2C)cc1` [I-810], the Kd was < 10 µM.
With `Fc1cccc(N2CCC[C@H]3[C@@H]2CCN3c2cc(N3CC4CCC(C4)C3)ccn2)c1` [I-605], the Kd lay in the range of 10 to 100 µM.
`OCCCc1ccc(N2CCC[C@@H](Nc3cc(N4CCOCC4)ccn3)C2)cc1` [I-873]: the Kd was > 200 µM.
Turning to `Cc1ccc(C(=O)c2[nH]cc(C(=O)N[C@@H](CC(N)=O)c3cccc(Cl)c3)c2-c2c(C)cccc2F)cc1` [I-625], the dissociation constant Kd is < 10 µM.
The figure for `NC(=O)C[C@](CO)(NC(=O)c1c[nH]nc1-c1ccccc1F)c1cccc(Cl)c1` [I-253] is > 200 µM; for `OC1(c2ccccc2)CCC[C@@H](Nc2cc(N3CCCCC3)ccn2)C1` (stereo partly drawn) [I-925] it is 100 to 200 µM.
For the compound `Cc1[nH]nc(C(=O)N[C@@H](CC(N)=O)c2cccc(Cl)c2)c1-c1ccccc1F` [I-230], the Kd was > 200 µM.
Consider `Cc1cccc(F)c1-c1c(C(=O)N[C@@H](CC(N)=O)c2cccc(Cl)c2)c[nH]c1C#N` [I-637], for which the Kd is < 10 µM.
Consider `Oc1cnc(N2CCOCC2)cc1N[C@@H]1CCCN(c2cccc(F)c2)C1` [I-382], for which the Kd is > 200 µM.
In the case of `C=CC(=O)NCCCCN1CCN(c2ccnc(N[C@@H]3CCCN(c4cccc(F)c4)C3)c2)CC1` [I-633], the Kd is 10 to 100 µM.
Take `NC(=O)C[C@H](NC(=O)c1c[nH]nc1-c1cccc2ncnn12)c1cccc(Cl)c1` [I-237]: the Kd is > 200 µM.
The figure for `Fc1cccc(N2CCCC(n3cnc4nccc(N5CCOCC5)c43)C2)c1` (stereo not drawn) [I-324] is > 200 µM.
`Cc1c(F)ccc(F)c1-c1c(C(=O)N[C@@H](CC(N)=O)c2cccc(Cl)c2)cn(C)c1C(=O)c1ccc(CN2CCC(C=O)CC2)cc1` [I-1037]: the Kd was < 10 µM.
On to `Cc1c(F)ccc(F)c1-c1[nH]ncc1C(=O)N[C@@H](c1cccc(Cl)c1)[C@H]1CCOC1` [I-965], for which the Kd is 100 to 200 µM.
